Data on ten compounds can be found in US7582610B2, “Melanocortin receptor templates, peptides and use thereof” (priority 2003, dated 2009).

The target in assay [1] is T1, mMC4R (Mus musculus, UniProt P56450). Briefly: Functional bioassay, CRE/β-galactosidase reporter in HEK-293 cells stably expressing mMC4R.
Description: (§1) 5,000 to 15,000 post transfection cells were plated into 96 well Primera plates (Falcon) and incubated overnight. […] The assay media was aspirated and 50 μL of lysis buffer (250 mM Tris-HCl pH=8.0 and 0.1% Triton X-100) was added. The plates were stored at −80° overnight.
(§2) The plates containing the cell lysates were thawed the following day. Aliquots of 10 μL were taken from each well and transferred to another 96-well plate for relative protein determination. To the cell lysate plates, 40 μL phosphate-buffered saline with 0.5% BSA was added to each well. Subsequently, 150 μL substrate buffer (60 mM sodium phosphate, 1 mM MgCl2, 10 mM KCl, 5 mM β-mercaptoethanol, 200 mg/100 mL ONPG) was added to each well and the plates were incubated at 37°.
(§3) The sample absorbance, OD405, was measured using a 96 well plate reader (Molecular Devices). The relative protein was determined by adding 200 μL 1:5 dilution Bio Rad G250 protein dye:water to the 10 μL cell lysate sample taken previously, and the OD595 was measured on a 96 well plate reader (Molecular Devices). Data points were normalized both to the relative protein content and non-receptor dependent forskolin stimulation.
(§4) For data analysis, EC50 and pA2 values represent the mean of duplicate experiments performed in triplet, quadruplet or more independent experiments.
Assay [2] deals with T2, mMC3R (Mus musculus, UniProt P33033). Briefly: Receptor binding study, competitive displacement of 125I-NDP-MSH at mMC3R. The arrangement: expressed in transfected cells. As to conditions: peptide at 10 μM. A general note: Loss of bound radioactivity is the signal in a displacement assay; it reports binding, not function.
T2 sequence (P33033 whole entry): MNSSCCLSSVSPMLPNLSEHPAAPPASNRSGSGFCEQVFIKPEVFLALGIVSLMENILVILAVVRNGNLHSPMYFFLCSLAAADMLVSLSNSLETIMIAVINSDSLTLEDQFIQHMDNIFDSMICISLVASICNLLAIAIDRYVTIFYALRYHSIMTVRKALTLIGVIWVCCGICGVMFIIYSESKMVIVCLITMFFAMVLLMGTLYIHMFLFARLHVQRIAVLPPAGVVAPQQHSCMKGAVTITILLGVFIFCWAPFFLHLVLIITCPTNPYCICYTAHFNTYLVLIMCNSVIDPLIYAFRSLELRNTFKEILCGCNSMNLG
Assay [3] has as its target T2, mMC3R. In words: Functional bioassay, CRE/β-galactosidase reporter in HEK-293 cells stably expressing mMC3R. As to conditions: for pharmacology in words at mMC3R: slight agonist = some stimulatory response at 100 μM, not enough to determine an EC50.
Description: as §1, §2, §3, §4
The next assay deals with mMC1R (Mus musculus, UniProt Q01727). In words: Functional bioassay, CRE/β-galactosidase reporter in HEK-293 cells stably expressing mMC1R. As to conditions: for pharmacology in words at mMC1R: slight agonist = some stimulatory response at 100 μM, not enough to determine an EC50.
Sequence of mMC1R (Q01727 whole entry): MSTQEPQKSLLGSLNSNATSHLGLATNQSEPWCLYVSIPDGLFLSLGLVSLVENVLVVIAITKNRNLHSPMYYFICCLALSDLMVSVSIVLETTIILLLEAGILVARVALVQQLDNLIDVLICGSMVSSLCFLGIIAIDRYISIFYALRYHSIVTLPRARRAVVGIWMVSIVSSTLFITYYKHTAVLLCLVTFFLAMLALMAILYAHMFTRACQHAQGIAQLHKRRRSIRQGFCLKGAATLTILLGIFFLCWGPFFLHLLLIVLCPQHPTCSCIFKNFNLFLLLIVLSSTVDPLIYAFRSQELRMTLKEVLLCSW
For assay [4], the target named is T1, mMC4R. Briefly: Receptor binding study, competitive displacement of 125I-NDP-MSH at mMC4R. The arrangement: expressed in transfected cells. The settings on record: peptide at 10 μM.
Another assay deals with mMC5R (Mus musculus, UniProt P41149). Briefly: Functional bioassay, CRE/β-galactosidase reporter in HEK-293 cells stably expressing mMC5R. As to conditions: for pharmacology in words at mMC5R: slight agonist = some stimulatory response at 100 μM, not enough to determine an EC50.
Sequence of mMC5R (P41149 whole entry): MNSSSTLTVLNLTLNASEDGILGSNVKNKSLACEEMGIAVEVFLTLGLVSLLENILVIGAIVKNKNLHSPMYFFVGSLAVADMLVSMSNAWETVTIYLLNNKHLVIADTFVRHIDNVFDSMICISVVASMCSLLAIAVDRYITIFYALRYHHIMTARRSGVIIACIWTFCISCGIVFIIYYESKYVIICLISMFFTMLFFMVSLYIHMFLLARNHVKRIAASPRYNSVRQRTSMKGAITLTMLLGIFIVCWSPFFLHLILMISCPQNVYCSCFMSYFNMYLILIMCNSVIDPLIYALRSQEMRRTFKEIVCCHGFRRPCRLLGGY

Each structure is given as a SMILES string. Where a SMILES comes first, the peptide text is derived from it. Bridges are numbered along the chain shown (N, C = ends). [ ]: non-standard residue; d: D form. Nle = CCCC[C@H](N)C(=O)O; Dap = NC[C@H](N)C(=O)O Bounds are passed on as bounds.

T1 sequence (P56450 whole entry): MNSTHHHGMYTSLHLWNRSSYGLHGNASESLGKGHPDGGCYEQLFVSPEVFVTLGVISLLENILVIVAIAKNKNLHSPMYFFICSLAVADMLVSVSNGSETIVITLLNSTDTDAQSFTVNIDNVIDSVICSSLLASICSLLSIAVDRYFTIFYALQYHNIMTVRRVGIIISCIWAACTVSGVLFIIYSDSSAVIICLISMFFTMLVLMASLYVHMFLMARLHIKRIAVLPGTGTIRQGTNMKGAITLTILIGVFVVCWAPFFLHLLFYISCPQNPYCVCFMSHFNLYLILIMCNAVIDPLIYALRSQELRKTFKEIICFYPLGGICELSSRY
Description for mMC1R: as §1, §2, §3, §4
Description for mMC5R: as §1, §2, §3, §4

In the case of `C[C@@H]1NC(=O)[C@H](CC(N)=O)NC(=O)[C@H](Cc2c[nH]c3ccccc23)NC(=O)[C@H](CCCNC(=N)N)NC(=O)[C@@H](Cc2ccccc2)NC(=O)[C@@H](NC(=O)[C@@H](N)Cc2ccc(O)cc2)CC(=O)NC[C@@H](C(=O)N[C@@H](Cc2ccc(O)cc2)C(N)=O)NC(=O)[C@H](Cc2ccccc2)NC1=O` [SEQ ID NO: 7, Tyr-c[Asp-DPhe-Arg-Trp-Asn-Ala-Phe-Dpr]-Tyr] (H-YD[dF]RWNAF[Dap]Y-NH2; lactam 2-9), at mMC4R [1], a half-maximal response (EC50) required 0.45 µM. On mMC4R [1] (agonist EC50 ratio), the “MC4R versus MC3R selective” value is more than 200 fold. The “specific binding at mMC3R (displacement of 125I-NDP-MSH)” value (“specific binding at mMC3R” below) on mMC3R [2] is on record as not above 25%. Also, the “pharmacology in words at mMC3R” value on mMC3R [3] is on record as “Slight agonist”.

Turning to `C[C@@H]1NC(=O)[C@H](CC(N)=O)NC(=O)[C@H](Cc2ccccc2)NC(=O)[C@H](Cc2ccccc2)NC(=O)[C@H](CCCNC(=N)N)NC(=O)[C@H](Cc2c[nH]cn2)NC(=O)[C@@H](NC(=O)[C@@H](N)Cc2ccc(O)cc2)CC(=O)NC[C@@H](C(=O)N[C@@H](Cc2ccc(O)cc2)C(N)=O)NC(=O)[C@H](Cc2ccccc2)NC1=O` [SEQ ID NO: 8] (H-YDHRFFNAF[Dap]Y-NH2; lactam 2-10), the “specific binding at mMC3R” value on mMC3R [2] was “less than 50%”. The “pharmacology in words at mMC3R” value at mMC3R [3] is “Slight agonist”. In addition, on mMC1R (compared with SEQ ID NO:3), the “decreased mMC1R agonist potency” value is 8 fold. Further, on mMC4R [4], the “specific binding at mMC4R (displacement of 125I-NDP-MSH)” value is “less than 50%”.

Regarding `CCCC[C@H](NC(=O)[C@H](CO)NC(=O)[C@H](Cc1ccc(O)cc1)NC(=O)[C@H](CO)NC(C)=O)C(=O)N[C@@H](CCC(=O)O)C(=O)N[C@@H](Cc1c[nH]cn1)C(=O)N[C@@H](C)C(=O)N[C@@H](C)C(=O)N[C@@H](C)C(=O)NCC(=O)N[C@@H](CCCCN)C(=O)N1CCC[C@H]1C(=O)N[C@H](C(N)=O)C(C)C` [SEQ ID NO: 12] (Ac-SYS[Nle]EHAAAGKPV-NH2), the EC50 on mMC4R [1], on mMC3R [3], on mMC1R and on mMC5R was more than 100 µM in each case. Besides, the “specific binding at mMC3R” value at mMC3R [2] is not above 25%.

Take `CCCC[C@H](NC(=O)[C@H](CO)NC(=O)[C@H](Cc1ccc(O)cc1)NC(=O)[C@H](CO)NC(C)=O)C(=O)N[C@@H](CCC(=O)O)C(=O)N[C@@H](Cc1ccccc1)C(=O)N[C@@H](Cc1ccccc1)C(=O)N[C@@H](CCCNC(=N)N)C(=O)NCC(=O)N[C@@H](CCCCN)C(=O)N1CCC[C@H]1C(=O)N[C@H](C(N)=O)C(C)C` [SEQ ID NO: 13] (Ac-SYS[Nle]EFFRGKPV-NH2): the EC50 on mMC4R [1], at mMC3R [3] and on mMC5R was more than 100 µM throughout. In addition, the “pharmacology in words at mMC1R” value on mMC1R is on record as “Partial agonist”.

Regarding `CCCC[C@H](NC(=O)[C@H](CO)NC(=O)[C@H](Cc1ccc(O)cc1)NC(=O)[C@H](CO)NC(C)=O)C(=O)N[C@@H](CCC(=O)O)C(=O)N[C@@H](Cc1c[nH]cn1)C(=O)N[C@@H](Cc1ccccc1)C(=O)N[C@@H](Cc1ccccc1)C(=O)N[C@@H](CCCNC(=N)N)C(=O)NCC(=O)N[C@@H](CCCCN)C(=O)N1CCC[C@H]1C(=O)N[C@H](C(N)=O)C(C)C` [SEQ ID NO: 14] (Ac-SYS[Nle]EHFFRGKPV-NH2), on mMC4R [1], the concentration giving a half-maximal response (EC50) – broadly, the concentration giving half of the maximal effect – is more than 100 µM. Also, the “pharmacology in words at mMC3R” value at mMC3R [3] is “Partial agonist”. Further, the “pharmacology in words at mMC1R” value on mMC1R is listed as “Partial agonist”. Besides, the “pharmacology in words at mMC5R” value on mMC5R is on record as “Partial agonist”.

For `CCCC[C@H](NC(=O)[C@H](CO)NC(=O)[C@H](Cc1ccc(O)cc1)NC(=O)[C@H](CO)NC(C)=O)C(=O)N[C@@H](CCC(=O)O)C(=O)N[C@@H](Cc1c[nH]cn1)C(=O)N[C@H](CCCNC(=N)N)C(=O)N[C@@H](Cc1ccccc1)C(=O)N[C@@H](Cc1ccccc1)C(=O)NCC(=O)N[C@@H](CCCCN)C(=O)N1CCC[C@H]1C(=O)N[C@H](C(N)=O)C(C)C` [SEQ ID NO: 16, Ac-Ser-Tyr-Ser-Nle-Glu-His-DArg-Phe-Phe-Gly-Lys-Pro-Val] (Ac-SYS[Nle]EH[dR]FFGKPV-NH2), the EC50 on mMC4R [1] and at mMC3R [3] was more than 100 µM in each case. The “pharmacology in words at mMC1R” value on mMC1R is reported as “Slight agonist”. For the same compound, the “pharmacology in words at mMC5R” value on mMC5R is “Slight agonist”.

With `CCCC[C@H](NC(=O)[C@H](CO)NC(=O)[C@H](Cc1ccc(O)cc1)NC(=O)[C@H](CO)NC(C)=O)C(=O)N[C@@H](CCC(=O)O)C(=O)N[C@@H](Cc1c[nH]cn1)C(=O)N[C@@H](CCCNC(=N)N)C(=O)N[C@H](Cc1ccccc1)C(=O)N[C@@H](Cc1ccccc1)C(=O)NCC(=O)N[C@@H](CCCCN)C(=O)N1CCC[C@H]1C(=O)N[C@H](C(N)=O)C(C)C` [SEQ ID NO: 17, Ac-Ser-Tyr-Ser-Nle-Glu-His-Arg-DPhe-Phe-Gly-Lys-Pro-Val] (Ac-SYS[Nle]EHR[dF]FGKPV-NH2), the “pharmacology in words at mMC4R” value at mMC4R [1] (slight agonist = some stimulatory response at 100 μM, not enough to determine an EC50) is on record as “Slight agonist”. On mMC3R [3] (compared with SEQ ID NO:15), the “decreased mMC3R agonist potency” value came to 13 fold. In addition, on mMC1R (agonist EC50 ratio), the “MC1R versus MC3R selective” value is given as 850 fold and the “MC1R versus MC5R selective” value is 62 fold. For the same compound, the “increase in mMC1R agonist potency” value on mMC1R (compared with SEQ ID NO:15) came out at 8 fold. Moreover, on mMC4R [4], the “specific binding at mMC4R (displacement of 125I-NDP-MSH)” value is given as not above 25%.

On to `CCCC[C@H](NC(C)=O)C(=O)N[C@H]1CC(=O)NCCCC[C@@H](C(N)=O)NC(=O)[C@H](C)NC(=O)[C@H](C)NC(=O)[C@H](C)NC(=O)[C@H](Cc2c[nH]cn2)NC1=O` [SEQ ID NO: 19, Ac-Nle-c[Asp-His-Ala-Ala-Ala-Lys]] (Ac-[Nle]DHAAAK-NH2; lactam 2-7), for which the EC50 on mMC4R [1], on mMC3R [3], on mMC1R and on mMC5R was more than 100 µM throughout.

On to `CCCC[C@H](NC(C)=O)C(=O)N[C@H]1CC(=O)NCCCC[C@@H](C(N)=O)NC(=O)[C@H](Cc2ccccc2)NC(=O)[C@H](Cc2ccccc2)NC(=O)[C@H](CCCNC(=N)N)NC(=O)[C@H](Cc2c[nH]cn2)NC1=O` [SEQ ID NO: 20, Ac-Nle-c[Asp-His-Arg-Phe-Phe-Lys]] (Ac-[Nle]DHRFFK-NH2; lactam 2-7; C-terminus assumed), for which the EC50 at mMC4R [1], on mMC3R [3] and on mMC5R was more than 100 µM each time. For the same compound, the “pharmacology in words at mMC1R” value at mMC1R is on record as “Partial agonist”.

For `CCCC[C@H](NC(C)=O)C(=O)N[C@H]1CC(=O)NCCCC[C@@H](C(N)=O)NC(=O)[C@H](Cc2ccccc2)NC(=O)[C@H](Cc2ccccc2)NC(=O)[C@@H](CCCNC(=N)N)NC(=O)[C@H](Cc2c[nH]cn2)NC1=O` [SEQ ID NO: 21, Ac-Nle-c[Asp-His-DArg-Phe-Phe-Lys]] (Ac-[Nle]DH[dR]FFK-NH2; lactam 2-7), the EC50 on mMC4R [1], on mMC3R [3], on mMC1R and on mMC5R was more than 100 µM throughout.
